{"source": "patent US8324189B2", "about": "“Use of zolendronate for the manufacture of a medicament for the treatment of bone metabolism diseases” (Novartis Pharmaceuticals Corporation, priority 2001, dated 2012)", "key": {"[1]": {"assay": "controlled trials in cancer patients: percentage of patients showing a skeletal related adverse event", "type": "in vivo, human", "experimental": "The 4 mg dose of zoledronic acid has been determined to be clinically effective in several controlled trials in cancer patients, with placebo or the bisphosphonate pamidronate as comparator."}, "[2]": {"assay": "renal adverse events (increase in serum creatinine over baseline) in clinical studies", "type": "in vivo, human"}, "[3]": {"tested_on": "subcutaneous prostate cancer cell line tumours", "conditions": "cited from earlier work"}, "[4]": {"tested_on": "prostate cancer cell lines", "conditions": "in vitro treatment; cited from earlier work"}, "[5]": {"assay": "renal adverse events (increase in serum creatinine over baseline) in clinical studies", "type": "in vivo, human", "conditions": "for incidence of renal adverse events / incidence of renal adverse events (patients with event / patients): 4 mg", "experimental": "The dose of 4 mg zoledronic acid infused over 15 minutes offers a safety advantage in terms of renal tolerability over the shorter infusion time of 5 minutes. The lower incidence of renal adverse events with zoledronic acid infused over 15 minutes versus 5 minutes is summarized below. Renal adverse events are defined as increases in a patient's serum creatinine over baseline, by ≦0.5 mg/dL if baseline <1.4 mg/dL, by ≦1 mg/dL if baseline […], by ≦2-fold irrespective of baseline value."}, "[6]": {"assay": "pharmacokinetic study of zoledronic acid in cancer patients with bone metastases (plasma concentration, urinary excretion)", "type": "in vivo, human", "conditions": "for Cmax: human, plasma, intravenous", "experimental": "FIG. 1. Plasma concentrations in patients after 4 mg zoledronic acid infused over 5 minutes and 15 minutes (mean data for n=5 patients in 4 mg/5 min group, n=7 patients in 4 mg/15 min group, study 503 [2]\n• 1. The volume of 100 ml containing 4 mg zoledronic acid is infused over 15 minutes as an intravenous drip, which allows the drug to be administered at a uniform and precise rate. […] The pharmacokinetic parameters derived from the individual patients' plasma concentration versus time curves, and urinary excretion of drug are tabulated below."}, "[7]": {"tested_on": "osteoclastic bone resorption", "conditions": "animal models, cited from earlier work"}, "[8]": {"conditions": "Study 10, breast cancer patients"}, "[9]": {"conditions": "Study 10, multiple myeloma patients"}, "[10]": {"conditions": "Study 10, breast cancer and multiple myeloma patients, 5 minutes infusion"}, "[11]": {"conditions": "Study 10, breast cancer and multiple myeloma patients, 15 minutes infusion"}, "[12]": {"conditions": "Study 11, lung cancer patients, 5 minutes infusion"}, "[13]": {"conditions": "Study 11, lung cancer patients, 15 minutes infusion"}, "[14]": {"conditions": "Study 39, prostate cancer patients, 5 minutes infusion"}, "[15]": {"conditions": "Study 39, prostate cancer patients, 15 minutes infusion"}, "[16]": {"conditions": "4 mg infused over 5 minutes, n = 5"}, "[17]": {"conditions": "4 mg infused over 15 minutes, n = 7"}}, "data": [{"smiles": "NCCC(O)(P(=O)(O)O)P(=O)(O)O", "note": "[pamidronate, disodium pamidronate]", "values": [{"measurement": "Percentage of patients showing a skeletal related adverse event", "setting": "[1]; [8]", "result": 47, "unit": "%"}, {"measurement": "Percentage of patients showing a skeletal related adverse event", "setting": "[1]; [9]", "result": 49, "unit": "%"}, {"measurement": "renal tolerability (incidence of renal adverse events)", "setting": "[2]; 90 mg infused over 2 hours", "result": 8.2, "unit": "%"}]}, {"smiles": "O=P(O)(O)C(O)(Cn1ccnc1)P(=O)(O)O", "note": "[zoledronic acid, 1-hydroxy-2-(imidazol-1-yl)ethane-1,1-diphosphonic acid]", "values": [{"measurement": "tumour volume", "setting": "[3]", "result": "no significant decrease in tumour volume"}, {"measurement": "growth of prostate cancer cell lines", "setting": "[4]", "result": "significantly reduced the growth of the cell lines"}, {"measurement": "renal safety versus 4 mg/5 minutes and higher zoledronic acid dose/15 minutes", "setting": "[5]; 4 mg/15 minutes", "result": "improved renal safety"}, {"measurement": "incidence of renal adverse events", "setting": "[5]; [10]", "result": 13.2, "unit": "%"}, {"measurement": "incidence of renal adverse events (patients with event / patients)", "setting": "[5]; [10]", "result": "36/272 patients"}, {"measurement": "incidence of renal adverse events", "setting": "[5]; [11]", "result": 8.8, "unit": "%"}, {"measurement": "incidence of renal adverse events (patients with event / patients)", "setting": "[5]; [11]", "result": "24/272 patients"}, {"measurement": "incidence of renal adverse events", "setting": "[5]; Study 10, breast cancer and multiple myeloma patients, 15 minutes infusion, listed as Zoledronic acid", "result": 8.8, "unit": "%"}, {"measurement": "incidence of renal adverse events", "setting": "[5]; [12]", "result": 16.4, "unit": "%"}, {"measurement": "incidence of renal adverse events (patients with event / patients)", "setting": "[5]; [12]", "result": "10/61 patients"}, {"measurement": "incidence of renal adverse events", "setting": "[5]; [13]", "result": 10.9, "unit": "%"}, {"measurement": "incidence of renal adverse events (patients with event / patients)", "setting": "[5]; [13]", "result": "18/165 patients"}, {"measurement": "incidence of renal adverse events", "setting": "[5]; [14]", "result": 19.8, "unit": "%"}, {"measurement": "incidence of renal adverse events (patients with event / patients)", "setting": "[5]; [14]", "result": "22/111 patients"}, {"measurement": "incidence of renal adverse events", "setting": "[5]; [15]", "result": 15.2, "unit": "%"}, {"measurement": "incidence of renal adverse events (patients with event / patients)", "setting": "[5]; [15]", "result": "14/78 patients"}, {"measurement": "efficacy versus Aredia (disodium pamidronate) 90 mg dosed over 2-4 hours", "setting": "[1]; 4 mg infused over approximately 15 minutes", "result": "comparable efficacy"}, {"measurement": "Percentage of patients showing a skeletal related adverse event", "setting": "[1]; [8]", "result": 42, "unit": "%"}, {"measurement": "Percentage of patients showing a skeletal related adverse event", "setting": "[1]; [9]", "result": 47, "unit": "%"}, {"measurement": "Percentage of patients showing a skeletal related adverse event", "setting": "[1]; Study 11, hypercalcemic lung cancer patients", "result": 42, "unit": "%"}, {"measurement": "Percentage of patients showing a skeletal related adverse event", "setting": "[1]; Study 11, hypercalcemic patients with other solid tumors", "result": 33, "unit": "%"}, {"measurement": "Percentage of patients showing a skeletal related adverse event", "setting": "[1]; Study 39, prostate cancer patients", "result": 33, "unit": "%"}, {"measurement": "efficacy over placebo in the treatment of bone metastases", "setting": "[1]; double blind, placebo-controlled clinical study, prostate cancer patients", "result": "statistically significant efficacy benefit over placebo"}, {"measurement": "Differences in AUC, 15 minutes versus 5 minutes infusion", "setting": "[6]; 4 mg", "result": "not significant"}, {"measurement": "Differences in Ae, 15 minutes versus 5 minutes infusion", "setting": "[6]; 4 mg", "result": "not significant"}, {"measurement": "Differences in mean Cmax, 15 minutes versus 5 minutes infusion", "setting": "[6]; 4 mg", "result": "statistically significant"}, {"measurement": "AUC 0-24 h", "setting": "[6]; [16]", "result": "378 ± 116", "unit": "ngxh/ml"}, {"measurement": "Ae 0-24 h (amount of drug excreted in urine)", "setting": "[6]; [16]", "result": "38.7 ± 6.34 % of dose"}, {"measurement": "AUC 0-24 h", "setting": "[6]; [17]", "result": "420 ± 218", "unit": "ngxh/ml"}, {"measurement": "Ae 0-24 h (amount of drug excreted in urine)", "setting": "[6]; [17]", "result": "37.4 ± 17.0 % of dose"}, {"measurement": "Cmax", "setting": "[6]; 4 mg, 4 mg infused over 5 minutes, n = 5, cancer patients with bone metastases", "result": "403 ± 118", "unit": "ng/mL"}, {"measurement": "Cmax", "setting": "[6]; 4 mg, 4 mg infused over 15 minutes, n = 7, cancer patients with bone metastases", "result": "264 ± 86", "unit": "ng/mL"}, {"measurement": "renal safety versus higher doses of zoledronic acid, 8 mg and 16 mg", "setting": "[2]; 4 mg infused over 15 minutes", "result": "improved renal safety"}, {"measurement": "impact on renal function", "setting": "[7]; doses inhibiting bone resorption", "result": "no appreciable impact on renal function"}, {"measurement": "inhibition of osteoclastic bone resorption versus earlier generation bisphosphonates", "setting": "[7]; doses that do not affect bone formation and mineralization", "result": "inhibits osteoclastic bone resorption more effectively than earlier generation bisphosphonates"}]}]}
